Reference: PubChem BioAssay (NCI)
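How tested: cells in 96-well plates exposed to compound for 48 hours at five concentrations. The concentration for 50% growth inhibition is given as GI50. TGI marks complete inhibition of growth.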

Tests used:
Test in all cases: NCI anticancer screen, dose series, 48 h
SR leukemia = test system: SR leukemia
KM12 colon = test system: KM12 colon
PC-3 prostate = test system: PC-3 prostate
SK-MEL-5 melanoma = test system: SK-MEL-5 melanoma
SK-OV-3 ovarian = test system: SK-OV-3 ovarian
786-0 renal = test system: 786-0 renal
MALME-3M melanoma = test system: MALME-3M melanoma
A549 NSCLC = test system: A549 NSCLC
HL-60(TB) leukemia = test system: HL-60(TB) leukemia
SNB-75 CNS = test system: SNB-75 CNS
OVCAR-5 ovarian = test system: OVCAR-5 ovarian
TK-10 renal = test system: TK-10 renal
UACC-257 melanoma = test system: UACC-257 melanoma
NCI/ADR-RES ovarian = test system: NCI/ADR-RES ovarian
UACC-62 melanoma = test system: UACC-62 melanoma
OVCAR-8 ovarian = test system: OVCAR-8 ovarian
SF-295 CNS = test system: SF-295 CNS
SN12C renal = test system: SN12C renal
EKVX NSCLC = test system: EKVX NSCLC
A498 renal = test system: A498 renal
SF-539 CNS = test system: SF-539 CNS
HCT-116 colon = test system: HCT-116 colon
DU-145 prostate = test system: DU-145 prostate
SW-620 colon = test system: SW-620 colon
U251 CNS = test system: U251 CNS
K-562 leukemia = test system: K-562 leukemia
ACHN renal = test system: ACHN renal
SNB-19 CNS = test system: SNB-19 CNS
COLO 205 colon = test system: COLO 205 colon
HOP-62 NSCLC = test system: HOP-62 NSCLC
HOP-92 NSCLC = test system: HOP-92 NSCLC
MOLT-4 leukemia = test system: MOLT-4 leukemia
BT-549 breast = test system: BT-549 breast
CCRF-CEM leukemia = test system: CCRF-CEM leukemia
NCI-H522 lung = test system: NCI-H522 lung
OVCAR-4 ovarian = test system: OVCAR-4 ovarian
SF-268 CNS = test system: SF-268 CNS
HCT-15 colon = test system: HCT-15 colon
CAKI-1 renal = test system: CAKI-1 renal
RXF 393 renal = test system: RXF 393 renal
HS 578T breast = test system: HS 578T breast
NCI-H226 lung = test system: NCI-H226 lung
NCI-H460 lung = test system: NCI-H460 lung
HCC-2998 colon = test system: HCC-2998 colon
MDA-MB-231 breast = test system: MDA-MB-231 breast
IGROV1 ovarian = test system: IGROV1 ovarian
SK-MEL-28 melanoma = test system: SK-MEL-28 melanoma
RPMI-8226 leukemia = test system: RPMI-8226 leukemia
HT29 colon = test system: HT29 colon
M14 melanoma = test system: M14 melanoma
OVCAR-3 ovarian = test system: OVCAR-3 ovarian
LOX IMVI melanoma = test system: LOX IMVI melanoma
UO-31 renal = test system: UO-31 renal
T-47D breast = test system: T-47D breast
SK-MEL-2 melanoma = test system: SK-MEL-2 melanoma
MCF7 breast = test system: MCF7 breast
NCI-H23 lung = test system: NCI-H23 lung
MDA-MB-435 = test system: MDA-MB-435

For `COc1ccc2nccc(/C=C/c3ccnc4ccc(OC)cc34)c2c1`, the GI50 (SR leukemia) was 21.8 µM, the TGI (SR leukemia) was greater than 53.7 µM and the GI50 (KM12 colon) was greater than 73.1 µM. It also gave a TGI (KM12 colon) greater than 100 µM, a GI50 (PC-3 prostate) greater than 47.5 µM and a TGI (PC-3 prostate) greater than 79.9 µM. It also gave a GI50 (SK-MEL-5 melanoma) greater than 71.4 µM, a TGI (SK-MEL-5 melanoma) greater than 100 µM and a GI50 (SK-OV-3 ovarian) greater than 77 µM. The TGI (SK-OV-3 ovarian) was greater than 100 µM, the GI50 (786-0 renal) was greater than 100 µM and the TGI (786-0 renal) was greater than 100 µM. The GI50 (MALME-3M melanoma) was 22.1 µM, the TGI (MALME-3M melanoma) was 48.1 µM and the GI50 (A549 NSCLC) was greater than 100 µM. For the same molecule, the TGI (A549 NSCLC) was greater than 100 µM, the GI50 (HL-60(TB) leukemia) was greater than 50.8 µM and the TGI (HL-60(TB) leukemia) was greater than 86.5 µM. The GI50 (SNB-75 CNS) was 27.3 µM, the TGI (SNB-75 CNS) was greater than 80.2 µM and the GI50 (OVCAR-5 ovarian) was greater than 82.2 µM. It also gave a TGI (OVCAR-5 ovarian) greater than 100 µM, a GI50 (TK-10 renal) greater than 45.2 µM and a TGI (TK-10 renal) greater than 63.4 µM. The GI50 (UACC-257 melanoma) was greater than 100 µM, the TGI (UACC-257 melanoma) was greater than 100 µM and the GI50 (NCI/ADR-RES ovarian) was greater than 100 µM. It also gave a TGI (NCI/ADR-RES ovarian) greater than 100 µM, a GI50 (UACC-62 melanoma) greater than 77.4 µM and a TGI (UACC-62 melanoma) greater than 100 µM. It also gave a GI50 (OVCAR-8 ovarian) greater than 100 µM, a TGI (OVCAR-8 ovarian) greater than 100 µM and a GI50 (SF-295 CNS) greater than 64.6 µM. For the same molecule, the TGI (SF-295 CNS) was greater than 100 µM, the GI50 (SN12C renal) was greater than 100 µM and the TGI (SN12C renal) was greater than 100 µM. It also gave a GI50 (EKVX NSCLC) greater than 61.2 µM, a TGI (EKVX NSCLC) greater than 100 µM and a GI50 (A498 renal) greater than 36.9 µM. The TGI (A498 renal) was greater than 83.9 µM, the GI50 (SF-539 CNS) was greater than 93.1 µM and the TGI (SF-539 CNS) was greater than 100 µM. For the same molecule, the GI50 (HCT-116 colon) was 38.7 µM, the TGI (HCT-116 colon) was greater than 100 µM and the GI50 (DU-145 prostate) was greater than 42.4 µM. It also gave a TGI (DU-145 prostate) greater than 63.4 µM, a GI50 (SW-620 colon) of 39.8 µM and a TGI (SW-620 colon) greater than 100 µM. It also gave a GI50 (U251 CNS) greater than 100 µM, a TGI (U251 CNS) greater than 100 µM and a GI50 (K-562 leukemia) greater than 43 µM. For the same molecule, the TGI (K-562 leukemia) was greater than 59.1 µM, the GI50 (ACHN renal) was greater than 71 µM and the TGI (ACHN renal) was greater than 100 µM. It also gave a GI50 (SNB-19 CNS) greater than 100 µM, a TGI (SNB-19 CNS) greater than 100 µM and a GI50 (COLO 205 colon) greater than 100 µM. It also gave a TGI (COLO 205 colon) greater than 100 µM, a GI50 (HOP-62 NSCLC) greater than 64.3 µM and a TGI (HOP-62 NSCLC) greater than 100 µM. The GI50 (HOP-92 NSCLC) was 8.11 µM, the TGI (HOP-92 NSCLC) was greater than 56.9 µM and the GI50 (MOLT-4 leukemia) was greater than 55.1 µM. It also gave a TGI (MOLT-4 leukemia) greater than 100 µM, a GI50 (BT-549 breast) greater than 63.4 µM and a TGI (BT-549 breast) greater than 100 µM. It also gave a GI50 (CCRF-CEM leukemia) greater than 38.9 µM, a TGI (CCRF-CEM leukemia) greater than 53.3 µM and a GI50 (NCI-H522 lung) of 26.9 µM. It also gave a TGI (NCI-H522 lung) of 89.2 µM, a GI50 (OVCAR-4 ovarian) of 21.7 µM and a TGI (OVCAR-4 ovarian) greater than 52.5 µM. The GI50 (SF-268 CNS) was greater than 91.6 µM, the TGI (SF-268 CNS) was greater than 100 µM and the GI50 (HCT-15 colon) was greater than 62.8 µM. For the same molecule, the TGI (HCT-15 colon) was greater than 100 µM, the GI50 (CAKI-1 renal) was greater than 82.4 µM and the TGI (CAKI-1 renal) was greater than 100 µM. The GI50 (RXF 393 renal) was greater than 73.4 µM, the TGI (RXF 393 renal) was greater than 100 µM and the GI50 (HS 578T breast) was 23.6 µM. It also gave a TGI (HS 578T breast) of 90.1 µM, a GI50 (NCI-H226 lung) greater than 100 µM and a TGI (NCI-H226 lung) greater than 100 µM. The GI50 (NCI-H460 lung) was greater than 100 µM, the TGI (NCI-H460 lung) was greater than 100 µM and the GI50 (HCC-2998 colon) was greater than 100 µM. It also gave a TGI (HCC-2998 colon) greater than 100 µM, a GI50 (MDA-MB-231 breast) greater than 41.5 µM and a TGI (MDA-MB-231 breast) greater than 61.6 µM. For the same molecule, the GI50 (IGROV1 ovarian) was 28.4 µM, the TGI (IGROV1 ovarian) was 75.7 µM and the GI50 (SK-MEL-28 melanoma) was 24.6 µM. For the same molecule, the TGI (SK-MEL-28 melanoma) was 73.8 µM, the GI50 (RPMI-8226 leukemia) was 17.8 µM and the TGI (RPMI-8226 leukemia) was 39.9 µM. The GI50 (HT29 colon) was greater than 69.9 µM, the TGI (HT29 colon) was greater than 100 µM and the GI50 (M14 melanoma) was greater than 42 µM. The TGI (M14 melanoma) was greater than 56 µM, the GI50 (OVCAR-3 ovarian) was greater than 92 µM and the TGI (OVCAR-3 ovarian) was greater than 100 µM. For the same molecule, the GI50 (LOX IMVI melanoma) was 69.3 µM, the TGI (LOX IMVI melanoma) was greater than 100 µM and the GI50 (UO-31 renal) was greater than 100 µM. It also gave a TGI (UO-31 renal) greater than 100 µM, a GI50 (T-47D breast) of 43.8 µM and a TGI (T-47D breast) greater than 87.3 µM. For the same molecule, the GI50 (SK-MEL-2 melanoma) was greater than 53.6 µM, the TGI (SK-MEL-2 melanoma) was greater than 78.4 µM and the GI50 (MCF7 breast) was 2.39 µM. The TGI (MCF7 breast) was greater than 38.5 µM, the GI50 (NCI-H23 lung) was greater than 100 µM and the TGI (NCI-H23 lung) was greater than 100 µM. For the same molecule, the GI50 (MDA-MB-435) was greater than 79.5 µM and the TGI (MDA-MB-435) was greater than 100 µM.
